The values below come from ChEMBL document CHEMBL1142509, “Building skeletally diverse architectures on the Indoline Scaffold: the discovery of a chemical probe of focal adhesion kinase signaling networks” (Bioorg Med Chem, 2008).

Activity calls are given as the source filed them. The calls are words filed in the database; no cut-off is given here.

For experiment [1], the target named is Focal adhesion kinase 1 (Homo sapiens) (UniProt Q05397). Kind of experiment: Inhibition of human FAK at 30 uM.
The nature of experiment [2]: Antiproliferative activity against human MDA-MB-231M cells after 96 hrs by MTT assay. The class given is functional, cell-based. (In general: Formazan colour is commonly taken as a measure of viable cells.)
Experiment [3] has as its target Focal adhesion kinase 1 (Homo sapiens) (UniProt Q05397). Kind of experiment: Inhibition of FAK in human MDA-MB-231M cells assessed as phosphorylated tyrosine 397 levels at 25 uM after 1 hr by Western blot. It counts as cell-based. A general note: Immunoblotting shows a protein as a band on a membrane.
The species entered for a further experiment is Homo sapiens. The experiment is described as follows: Inhibition of human MDA-MB-231M cell motility assessed as remaining wound area at 25 uM after 24 hrs by wound healing assay. The class given is functional.
The subject of another experiment is MDA-MB-231. The experiment is described as follows: Antiinvasive activity against human MDA-MB-231 cells at 25 uM. The class given is functional, cell-based.

Chain of Focal adhesion kinase 1 (Homo sapiens) (Q05397 2-1052 limits assumed): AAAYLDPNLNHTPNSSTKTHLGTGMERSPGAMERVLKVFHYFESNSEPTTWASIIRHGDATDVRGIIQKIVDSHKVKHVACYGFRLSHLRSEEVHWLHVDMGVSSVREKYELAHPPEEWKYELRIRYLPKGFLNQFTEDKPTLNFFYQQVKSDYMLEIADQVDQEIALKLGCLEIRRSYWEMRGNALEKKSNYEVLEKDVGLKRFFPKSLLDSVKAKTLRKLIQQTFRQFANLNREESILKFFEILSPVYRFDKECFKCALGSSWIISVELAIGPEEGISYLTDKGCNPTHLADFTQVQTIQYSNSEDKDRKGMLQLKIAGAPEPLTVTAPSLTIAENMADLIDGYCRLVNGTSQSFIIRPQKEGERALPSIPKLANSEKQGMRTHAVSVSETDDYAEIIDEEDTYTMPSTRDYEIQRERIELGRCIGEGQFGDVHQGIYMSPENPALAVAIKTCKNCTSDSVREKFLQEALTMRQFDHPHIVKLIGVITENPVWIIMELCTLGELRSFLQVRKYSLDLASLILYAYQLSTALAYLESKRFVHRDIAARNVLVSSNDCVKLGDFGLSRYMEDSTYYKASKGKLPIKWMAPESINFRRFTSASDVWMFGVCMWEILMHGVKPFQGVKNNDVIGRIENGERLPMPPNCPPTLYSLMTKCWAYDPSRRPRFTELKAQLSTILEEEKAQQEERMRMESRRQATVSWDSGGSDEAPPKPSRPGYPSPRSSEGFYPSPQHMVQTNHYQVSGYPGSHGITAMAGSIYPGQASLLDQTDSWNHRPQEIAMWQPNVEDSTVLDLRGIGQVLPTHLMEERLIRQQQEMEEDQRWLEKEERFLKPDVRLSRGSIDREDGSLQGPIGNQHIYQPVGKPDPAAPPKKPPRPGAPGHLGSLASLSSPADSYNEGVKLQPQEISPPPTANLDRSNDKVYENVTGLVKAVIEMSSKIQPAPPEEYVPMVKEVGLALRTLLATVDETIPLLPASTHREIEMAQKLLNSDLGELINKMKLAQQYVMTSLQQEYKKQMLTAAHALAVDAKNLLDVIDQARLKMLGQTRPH

`C=CCOC(=O)N1c2ccc(OCCCOC3CCCCO3)cc2C[C@H]1[C@@H](CC=C)OC(C)=O` (mixture of isomers): in experiment [1], the inhibition stood at 30%. The same compound returned an IC50 in experiment [2] of 38.7 µM. Besides, the result (in experiment [3]; in the experiment filed under Homo sapiens; in the experiment with MDA-MB-231) was Active.

In general, inhibition refers to how much of the control response was suppressed. A low value points to a weak effect. Broadly, the IC50 is the concentration needed to halve the response being measured.
